# Test results from article PMC3578829, “A Small Molecule (Pluripotin) as a Tool for Studying Cancer Stem Cell Biology: Proof of Concept” (PLoS ONE, 2013).
# Values joined by “and” are separate entries in the source; they are usually repeats but may differ in a detail not shown here. Identical values can stand only once.
# What was measured:
# [1] = test system: OCT4; assay: Immunoblotting of OCT4 in remaining colon tumor lines; type: cell-based; conditions: 0.1 µM SC-1
# Description: (§1) Standard protein electrophoretic techniques were followed using previously published protocols. For these studies, the colon lines were cultured for 5 days with and without treatments, harvested with trypsin (0.25% trypsin 0.5 mM EDTA, Invitrogen), counted and lysed with a whole cell lysis buffer (10 mM Tris, 1.0 mM EDTA, 50 mM NaCl, 0.5% deoxycholate, 0.5% NP-40, 0.5% SDS, 1.0 mM PMSF, and aprotonin and a cocktail of phosphatase and protease inhibitors). The whole cell lysate was heated to 100°C for 10 min and then fractionated (1000 g, 10 min, 4°C). Protein concentrations were measured with the Pierce BCA Protein Assay. Twenty to 40 µg of protein lysate per lane were loaded onto 10% SDS polyacrylamide gels (Ready-Gels, Biorad) with Laemmli buffer. For immunoblotting, the primary antibodies were diluted in Tween/Tris wash buffer (0.1 mM Tris-HCl pH 7.5, 2.5% Tween-20, 150 mM NaCl) and 5% BSA or nonfat dry milk and incubated overnight at 4°C. Visualization of specific bands was accomplished with an alkaline phosphatase-labeled secondary anti-immunoglobulin antibody and the ECF Chemifluorescent reagent (GE Amersham). Pixel intensity of the imaged bands was measured using STORM (GE Amersham) and Image Quant Software. Normalization for loading was accomplished by reprobing with an anti-actin antibody, quantification of pixel intensity and data normalization.
# [2] = molecular target: T1, RSK1 (Homo sapiens, UniProt Q15418); assay: Miniaturized 33P-based kinase screening assay; type: biochemical; conditions: max 10 µM, 3-fold serial dilution, n = 2
# T1 construct: purchased Reaction Biology Corporation (Malvern, PA), contract assay
# T1 sequence (Q15418 whole entry): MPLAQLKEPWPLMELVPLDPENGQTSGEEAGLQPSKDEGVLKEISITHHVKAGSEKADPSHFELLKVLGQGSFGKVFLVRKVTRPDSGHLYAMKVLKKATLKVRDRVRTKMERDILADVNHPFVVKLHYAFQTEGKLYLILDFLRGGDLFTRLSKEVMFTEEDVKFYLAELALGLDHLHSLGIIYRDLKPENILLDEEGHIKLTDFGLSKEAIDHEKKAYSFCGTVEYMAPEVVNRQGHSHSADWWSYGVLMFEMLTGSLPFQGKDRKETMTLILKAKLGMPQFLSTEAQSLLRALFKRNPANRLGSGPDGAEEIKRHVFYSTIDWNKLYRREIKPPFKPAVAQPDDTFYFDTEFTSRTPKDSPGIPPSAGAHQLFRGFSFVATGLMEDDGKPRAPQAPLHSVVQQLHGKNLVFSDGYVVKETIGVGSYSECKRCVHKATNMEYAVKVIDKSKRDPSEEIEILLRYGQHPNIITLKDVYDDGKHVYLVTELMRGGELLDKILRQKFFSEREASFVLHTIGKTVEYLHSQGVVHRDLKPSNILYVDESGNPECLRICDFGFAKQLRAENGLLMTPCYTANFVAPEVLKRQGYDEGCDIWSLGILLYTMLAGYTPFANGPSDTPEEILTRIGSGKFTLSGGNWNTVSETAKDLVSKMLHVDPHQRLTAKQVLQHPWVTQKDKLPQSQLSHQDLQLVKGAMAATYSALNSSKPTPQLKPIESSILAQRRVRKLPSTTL
# Description: (§2) The RSK2 in vitro kinase inhibition assay utilized was a modification of protocols established by Nguyen et al.. Additional protocols that confirmed the results depicted in Figure 4 and evaluated kinase inhibitory activity in a random selection of protein kinases (Table 3) were conducted at Reaction Biology Corporation (Malvern, PA). This was a miniaturized ^33P-based screening assay.
# [3] = molecular target: T2, RSK4 (Homo sapiens, UniProt Q9UK32); assay: Miniaturized 33P-based kinase screening assay; type: biochemical; conditions: max 10 µM, 3-fold serial dilution, n = 2
# T2 construct: purchased Reaction Biology Corporation (Malvern, PA), contract assay
# T2 sequence (Q9UK32 whole entry): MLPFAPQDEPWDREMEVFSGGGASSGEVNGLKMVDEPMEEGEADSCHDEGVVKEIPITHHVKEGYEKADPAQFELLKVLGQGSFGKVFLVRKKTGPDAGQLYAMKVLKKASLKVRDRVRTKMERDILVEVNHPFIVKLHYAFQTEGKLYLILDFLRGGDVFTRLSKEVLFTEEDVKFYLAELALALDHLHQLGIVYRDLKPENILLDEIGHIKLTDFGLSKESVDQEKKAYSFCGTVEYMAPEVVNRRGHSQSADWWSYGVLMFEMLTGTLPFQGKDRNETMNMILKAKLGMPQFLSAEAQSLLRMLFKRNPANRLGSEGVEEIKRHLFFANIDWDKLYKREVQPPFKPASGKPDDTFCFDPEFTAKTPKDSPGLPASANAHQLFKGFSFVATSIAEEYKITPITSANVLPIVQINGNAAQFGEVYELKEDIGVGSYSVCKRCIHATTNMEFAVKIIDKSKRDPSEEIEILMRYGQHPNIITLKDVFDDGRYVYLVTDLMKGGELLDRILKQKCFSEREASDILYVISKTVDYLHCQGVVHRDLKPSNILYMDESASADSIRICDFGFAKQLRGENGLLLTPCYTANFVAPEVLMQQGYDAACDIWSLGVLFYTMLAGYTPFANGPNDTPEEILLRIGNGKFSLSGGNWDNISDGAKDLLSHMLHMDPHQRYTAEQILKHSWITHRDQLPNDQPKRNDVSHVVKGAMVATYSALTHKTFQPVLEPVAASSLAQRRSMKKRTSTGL
# Description: as §2
# [4] = molecular target: T3, RSK3 (Homo sapiens, UniProt Q15349); assay: Miniaturized 33P-based kinase screening assay; type: biochemical; conditions: max 10 µM, 3-fold serial dilution, n = 2
# T3 construct: purchased Reaction Biology Corporation (Malvern, PA), contract assay
# T3 sequence (Q15349 whole entry): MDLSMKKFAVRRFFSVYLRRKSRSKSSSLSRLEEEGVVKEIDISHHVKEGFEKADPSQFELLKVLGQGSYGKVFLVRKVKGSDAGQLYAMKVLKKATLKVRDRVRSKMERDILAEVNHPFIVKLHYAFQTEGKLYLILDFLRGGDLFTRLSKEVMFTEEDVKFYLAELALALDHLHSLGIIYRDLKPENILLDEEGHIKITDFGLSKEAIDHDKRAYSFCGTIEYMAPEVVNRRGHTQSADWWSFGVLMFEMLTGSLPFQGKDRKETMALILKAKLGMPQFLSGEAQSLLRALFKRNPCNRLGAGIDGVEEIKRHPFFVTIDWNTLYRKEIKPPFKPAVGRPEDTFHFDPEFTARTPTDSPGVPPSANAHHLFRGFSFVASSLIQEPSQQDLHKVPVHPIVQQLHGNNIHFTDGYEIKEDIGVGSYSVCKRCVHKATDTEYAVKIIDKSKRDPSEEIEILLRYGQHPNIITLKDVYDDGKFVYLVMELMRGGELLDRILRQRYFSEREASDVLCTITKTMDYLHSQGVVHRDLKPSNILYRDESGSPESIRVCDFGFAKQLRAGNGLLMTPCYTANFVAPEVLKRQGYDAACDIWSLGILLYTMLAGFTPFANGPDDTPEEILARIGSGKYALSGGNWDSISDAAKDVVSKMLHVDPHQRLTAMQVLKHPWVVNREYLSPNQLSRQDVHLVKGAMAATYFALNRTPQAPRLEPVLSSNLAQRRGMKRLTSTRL
# Description: as §2
# [5] = molecular target: RSK2 (Homo sapiens, UniProt P51812); assay: Miniaturized 33P-based kinase screening assay; type: biochemical; conditions: max 10 µM, 3-fold serial dilution, n = 2
# Description: as §2
# [6] = molecular target: T4, PLK2 (Homo sapiens, UniProt Q9NYY3); assay: Miniaturized 33P-based kinase screening assay; type: biochemical; conditions: max 10 µM, 3-fold serial dilution, n = 2
# T4 construct: purchased Reaction Biology Corporation (Malvern, PA), contract assay
# T4 sequence (Q9NYY3 whole entry): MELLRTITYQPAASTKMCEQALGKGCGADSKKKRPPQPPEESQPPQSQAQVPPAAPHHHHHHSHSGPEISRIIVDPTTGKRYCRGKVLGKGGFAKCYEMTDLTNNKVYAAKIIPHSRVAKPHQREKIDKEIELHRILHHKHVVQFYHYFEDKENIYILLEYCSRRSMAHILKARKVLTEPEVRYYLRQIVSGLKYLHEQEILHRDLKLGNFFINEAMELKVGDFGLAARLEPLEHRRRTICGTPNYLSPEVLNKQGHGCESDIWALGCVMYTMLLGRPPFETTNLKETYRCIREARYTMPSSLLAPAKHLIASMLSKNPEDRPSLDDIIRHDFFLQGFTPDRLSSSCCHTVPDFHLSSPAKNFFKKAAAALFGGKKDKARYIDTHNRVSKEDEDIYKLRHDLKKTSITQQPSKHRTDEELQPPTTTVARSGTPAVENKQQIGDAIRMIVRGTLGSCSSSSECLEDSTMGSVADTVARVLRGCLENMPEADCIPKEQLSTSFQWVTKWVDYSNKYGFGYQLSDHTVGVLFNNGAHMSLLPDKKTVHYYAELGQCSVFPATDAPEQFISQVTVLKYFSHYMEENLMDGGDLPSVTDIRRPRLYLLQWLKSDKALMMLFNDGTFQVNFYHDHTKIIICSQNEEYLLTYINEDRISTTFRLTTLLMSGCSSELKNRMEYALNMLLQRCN
# Description: as §2
# [7] = molecular target: T5, Abl1 (Homo sapiens, UniProt P00519); assay: Miniaturized 33P-based kinase screening assay; type: biochemical; conditions: max 10 µM, 3-fold serial dilution, n = 2
# T5 construct: purchased Reaction Biology Corporation (Malvern, PA), contract assay
# T5 sequence (P00519 whole entry): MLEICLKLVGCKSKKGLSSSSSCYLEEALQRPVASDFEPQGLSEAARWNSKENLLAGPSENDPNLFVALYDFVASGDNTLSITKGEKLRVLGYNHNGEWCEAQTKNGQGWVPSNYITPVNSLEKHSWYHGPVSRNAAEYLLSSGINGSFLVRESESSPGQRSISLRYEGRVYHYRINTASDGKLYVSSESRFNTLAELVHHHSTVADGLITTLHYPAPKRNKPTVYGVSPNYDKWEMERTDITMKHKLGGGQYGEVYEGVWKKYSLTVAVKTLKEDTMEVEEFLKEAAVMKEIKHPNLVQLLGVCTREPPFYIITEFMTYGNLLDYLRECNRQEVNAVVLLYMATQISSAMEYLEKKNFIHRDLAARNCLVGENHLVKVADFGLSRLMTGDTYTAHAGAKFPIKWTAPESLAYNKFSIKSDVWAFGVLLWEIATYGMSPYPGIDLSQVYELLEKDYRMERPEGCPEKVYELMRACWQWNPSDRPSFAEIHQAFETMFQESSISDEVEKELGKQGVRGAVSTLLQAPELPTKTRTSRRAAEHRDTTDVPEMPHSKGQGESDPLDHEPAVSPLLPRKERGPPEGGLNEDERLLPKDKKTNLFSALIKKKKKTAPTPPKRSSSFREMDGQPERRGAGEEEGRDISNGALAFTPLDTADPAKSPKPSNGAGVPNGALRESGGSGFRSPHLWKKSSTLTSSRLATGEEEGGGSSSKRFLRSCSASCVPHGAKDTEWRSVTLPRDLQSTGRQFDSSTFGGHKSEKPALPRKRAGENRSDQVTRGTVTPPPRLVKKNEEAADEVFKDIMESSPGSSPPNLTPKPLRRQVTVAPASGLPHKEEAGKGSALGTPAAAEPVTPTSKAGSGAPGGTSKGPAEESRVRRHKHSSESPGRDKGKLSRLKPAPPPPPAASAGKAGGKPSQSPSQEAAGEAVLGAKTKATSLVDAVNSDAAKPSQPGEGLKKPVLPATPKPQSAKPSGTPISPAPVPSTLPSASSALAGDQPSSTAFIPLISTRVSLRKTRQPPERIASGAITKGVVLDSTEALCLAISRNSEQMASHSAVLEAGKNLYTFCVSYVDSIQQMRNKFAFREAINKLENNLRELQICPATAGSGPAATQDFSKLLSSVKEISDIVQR
# Description: as §2
# [8] = molecular target: T6, PIM1 (Homo sapiens, UniProt P11309); assay: Miniaturized 33P-based kinase screening assay; type: biochemical; conditions: max 10 µM, 3-fold serial dilution, n = 2
# T6 construct: purchased Reaction Biology Corporation (Malvern, PA), contract assay
# T6 sequence (P11309 whole entry): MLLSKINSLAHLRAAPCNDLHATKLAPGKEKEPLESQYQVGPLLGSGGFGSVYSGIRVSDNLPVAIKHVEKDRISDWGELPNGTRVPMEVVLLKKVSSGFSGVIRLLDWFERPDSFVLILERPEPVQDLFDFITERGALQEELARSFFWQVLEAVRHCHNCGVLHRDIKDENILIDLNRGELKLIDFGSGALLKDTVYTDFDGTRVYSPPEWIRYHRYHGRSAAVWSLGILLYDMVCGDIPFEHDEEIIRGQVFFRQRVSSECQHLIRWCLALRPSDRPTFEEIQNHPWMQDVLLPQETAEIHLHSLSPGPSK
# Description: as §2
# [9] = molecular target: T7, p70S6K (Homo sapiens, UniProt P23443); assay: Miniaturized 33P-based kinase screening assay; type: biochemical; conditions: max 10 µM, 3-fold serial dilution, n = 2
# T7 construct: purchased Reaction Biology Corporation (Malvern, PA), contract assay
# T7 sequence (P23443 whole entry): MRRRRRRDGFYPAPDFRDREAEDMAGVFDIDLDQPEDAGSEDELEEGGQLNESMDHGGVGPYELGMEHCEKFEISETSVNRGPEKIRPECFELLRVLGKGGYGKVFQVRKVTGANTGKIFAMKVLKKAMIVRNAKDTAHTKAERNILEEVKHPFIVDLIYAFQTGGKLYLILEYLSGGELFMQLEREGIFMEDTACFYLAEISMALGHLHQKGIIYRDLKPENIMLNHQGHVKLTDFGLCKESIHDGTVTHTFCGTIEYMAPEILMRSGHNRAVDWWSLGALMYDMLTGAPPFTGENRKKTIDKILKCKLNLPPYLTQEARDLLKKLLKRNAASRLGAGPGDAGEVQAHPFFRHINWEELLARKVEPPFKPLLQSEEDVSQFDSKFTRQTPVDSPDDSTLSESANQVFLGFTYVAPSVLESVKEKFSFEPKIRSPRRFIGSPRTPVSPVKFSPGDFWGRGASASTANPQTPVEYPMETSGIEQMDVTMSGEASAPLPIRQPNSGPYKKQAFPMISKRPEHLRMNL
# Description: as §2
# [10] = test system: OCT4; assay: Immunoblotting of OCT4 in HT29; type: cell-based; conditions: 0.1 µM SC-1
# Description: as §1
# [11] = test system: SW-620; assay: Limiting dilution tumorigenicity, s.c. xenograft without protein support; type: in vivo, NOD.SCID mice; design: key to Tumorigenicity: Y indicates increased tumor formation or increased time to appearance or both.; Y ^%: Y indicates increased tumor formation when Matrigel was co-injected
# Description: (§3) Five day exposures were conducted.
# (§4) Six week old female NOD.SCID mice were randomly assigned to each of 20 treatment arms (n = 5/group). Treated and control colon tumor lines were enzymatically harvested and counted prior to dilution in RPMI 1640 (at 10, 100, 1,000, 10,000 cells/inoculum) for subcutaneous injection into the axillary region using a volume of […]. Positive control groups were established such that tumor formation occurred in all mice in approximately one week thus confirming that all tumor lines studied were tumorigenic. Cell inocula for the positive control groups ranged from 1×10^6 to 2.5×10^6. Cell viability of the cell stocks was assessed by trypan blue exclusion prior to dilution for injection and was routinely found to be >95%. Tumor formation was monitored weekly using caliper measurements and the tumor mass was calculated as weight in mg = 1/2×(tumor length)×(tumor width)^2. All experiments were terminated at 120 days or when tumor weight exceeded 2000 mg for any individual mouse. In selected studies, tumor cells were resuspended in Matrigel (50% concentration, BD Biosciences) prior to injection.
# [12] = test system: HCT-116; assay: as above; type: in vivo, NOD.SCID mice; design: key to Tumorigenicity: Y indicates increased tumor formation or increased time to appearance or both.; Y ^%: Y indicates increased tumor formation when Matrigel was co-injected
# Description: as §3, §4
# [13] = test system: HT29; assay: as above; type: in vivo, NOD.SCID mice; design: key to Tumorigenicity: Y indicates increased tumor formation or increased time to appearance or both.; Y ^%: Y indicates increased tumor formation when Matrigel was co-injected
# Description: as §3, §4
# [14] = test system: COLO 205; assay: as above; type: in vivo, NOD.SCID mice; design: key to Tumorigenicity: Y indicates increased tumor formation or increased time to appearance or both.; Y ^%: Y indicates increased tumor formation when Matrigel was co-injected
# Description: as §3, §4
# [15] = test system: HCC-2998; assay: as above; type: in vivo, NOD.SCID mice; design: key to Tumorigenicity: Y indicates increased tumor formation or increased time to appearance or both.; Y ^%: Y indicates increased tumor formation when Matrigel was co-injected
# Description: as §3, §4
structure (smiles),measurement,setting,value
Cc1cc(Nc2ncc3c(n2)N(C)C(=O)N(c2cc(NC(=O)c4cccc(C(F)(F)F)c4)ccc2C)C3)n(C)n1 [SC-1],OCT4 protein expression,[1],unchanged or decreased
same,IC50,[2],500 nM
same,IC50,[3],10000 nM
same,IC50,[4],3300 nM
same,IC50,[5],2500 nM
same,IC50,[6],2200 nM
same,IC50,[7],5 nM
same,IC50,[8],≥ 10000 nM
same,IC50,[9],1400 nM
same,OCT4 protein expression,[10],increased
same,Tumorigenicity,"[11]; SW-620, summary of SC-1 effects",Y
same,Tumor take rate,"[11]; SW-620 treated 5 days with 0.1 µM SC-1, 100 cells inoculated s.c.",0/5
same,Tumor take rate,"[11]; SW-620 treated 5 days with 0.1 µM SC-1, 1000 cells inoculated s.c.",0/5
same,Tumor take rate,"[11]; SW-620 treated 5 days with 0.1 µM SC-1, 10000 cells inoculated s.c.",2/5
same,Calculated Time to 1000 mg Tumor Volume,"[11]; SW-620 treated 5 days with 0.1 µM SC-1, 10,000 cells/inoculum, extrapolated from fitted line",98 days
same,Tumorigenicity,"[12]; HCT-116, summary of SC-1 effects",Y
same,Tumor take rate,"[12]; HCT-116 treated 5 days with 0.1 µM SC-1, 100 cells inoculated s.c.",0/5
same,Tumor take rate,"[12]; HCT-116 treated 5 days with 0.1 µM SC-1, 1000 cells inoculated s.c.",2/5
same,Tumor take rate,"[12]; HCT-116 treated 5 days with 0.1 µM SC-1, 10000 cells inoculated s.c.",5/5
same,Calculated Time to 1000 mg Tumor Volume,"[12]; HCT-116 treated 5 days with 0.1 µM SC-1, 10,000 cells/inoculum, extrapolated from fitted line",45 days
same,Tumorigenicity,"[13]; HT29, summary of SC-1 effects",Y
same,Tumor take rate,"[13]; HT29 treated 5 days with 0.1 µM SC-1, 100 cells inoculated s.c.",2 of 5 and 2/5
same,Tumor take rate,"[13]; HT29 treated 5 days with 0.1 µM SC-1, 1000 cells inoculated s.c.",3/5@
same,Tumor take rate,"[13]; HT29 treated 5 days with 0.1 µM SC-1, 10000 cells inoculated s.c.",5/5
same,Calculated Time to 1000 mg Tumor Volume,"[13]; HT29 treated 5 days with 0.1 µM SC-1, 10,000 cells/inoculum, extrapolated from fitted line",32 days
same,Tumorigenicity,"[14]; COLO 205, summary of SC-1 effects",Y
same,Tumor take rate,"[14]; COLO 205 treated 5 days with 0.1 µM SC-1, 100 cells inoculated s.c.",0/5
same,Tumor take rate,"[14]; COLO 205 treated 5 days with 0.1 µM SC-1, 1000 cells inoculated s.c.",1/5
same,Tumor take rate,"[14]; COLO 205 treated 5 days with 0.1 µM SC-1, 10000 cells inoculated s.c.",4 of 5 and 4/5
same,Calculated Time to 1000 mg Tumor Volume,"[14]; COLO 205 treated 5 days with 0.1 µM SC-1, 10,000 cells/inoculum, extrapolated from fitted line",101 days
same,Tumorigenicity,"[15]; HCC-2998, summary of SC-1 effects",Y
same,Tumor take rate,"[15]; HCC-2998 treated 5 days with 0.1 µM SC-1, 100 cells inoculated s.c.",0/5
same,Tumor take rate,"[15]; HCC-2998 treated 5 days with 0.1 µM SC-1, 1000 cells inoculated s.c.",0/5
same,Tumor take rate,"[15]; HCC-2998 treated 5 days with 0.1 µM SC-1, 10000 cells inoculated s.c.",2/5
same,Calculated Time to 1000 mg Tumor Volume,"[15]; HCC-2998 treated 5 days with 0.1 µM SC-1, 10,000 cells/inoculum, extrapolated from fitted line",139 days
